Assay results published in patent publication EP2027081B1, “THERAPEUTIC PROSTAGLANDIN COMPOUNDS FOR THE TREATMENT OF GLAUCOMA” (ALLERGAN, INC., priority 2006, dated 2007).

How the values were obtained:
[1] = molecular target: T1, hEP2/Gqs5 (Homo sapiens, UniProt P43116); experiment: FLIPR calcium signal study, HEK-293(EBNA) cells; assay type: cell-based; settings: Table 1; Ca2+ signal; NA means not active; read-out: FUNCTIONAL (Ca2+, EC50, nM) HEP 2
T1 construct: expressed in transfected cells; host or cells: HEK-293(EBNA)
Experimental: (§1) Cells were seeded at a density of 5x10^4 cells per well in Biocoat® Poly-D-lysine-coated black-wall, clear-bottom 96-well plates (Becton-Dickinson) and allowed to attach overnight in an incubator at 37 °C. Cells were then washed two times with HBSS-HEPES buffer (Hanks Balanced Salt Solution without bicarbonate and phenol red, 20 mM HEPES, pH 7.4) using a Denley Cellwash plate washer (Labsystems). After 45 minutes of dye-loading in the dark, using the calcium-sensitive dye Fluo-4 AM at a final concentration of 2 µM, plates were washed four times with HBSS-HEPES buffer to remove excess dye leaving 100 µl in each well. Plates were re-equilibrated to 37 °C for a few minutes.
Cells were excited with an Argon laser at 488 nm, and emission was measured through a 510-570 nm bandwidth emission filter (FLIPR™, Molecular Devices, Sunnyvale, CA). […] The peak increase in fluorescence intensity was recorded for each well. […] The peak fluorescence change in each drug-containing well was then expressed relative to the controls.
(§2) Compounds were tested in a high-throughput (HTS) or concentration-response (CoRe) format. In the HTS format, forty-four compounds per plate were examined in duplicates at a concentration of 10^-5 M. To generate concentration-response curves, four compounds per plate were tested in duplicates in a concentration range between 10^-5 and 10^-11 M. The duplicate values were averaged.

[2] = molecular target: T2, hDP/Gqs5 (Homo sapiens, UniProt Q13258); experiment: FLIPR calcium signal study, HEK-293(EBNA) cells; assay type: cell-based; settings: Table 1; NA means not active; read-out: FUNCTIONAL (Ca2+, EC50, nM) HDP
T2 construct: expressed in transfected cells; host or cells: HEK-293(EBNA)
Experimental: HEK-293(EBNA) cells, stably expressing one type or subtype of recombinant human prostaglandin receptors (prostaglandin receptors expressed: hDP/Gqs5; hEP1; hEP2/Gqs5; hEP3A/Gqi5; hEP4/Gqs5; hFP; hIP; hTP), were cultured in 100 mm culture dishes in high-glucose DMEM medium containing 10% fetal bovine serum, 2 mM I-glutamine, 250 µg/ml geneticin (G418) and 200 µg/ml hygromycin B as selection markers, and 100 units/ml penicillin G, 100 µg/ml streptomycin and 0.25 µg/ml amphotericin B.
as §1
Cells were excited with an Argon laser at 488 nm, and emission was measured through a 510-570 nm bandwidth emission filter (FLIPR™, Molecular Devices, Sunnyvale, CA). Drug solution was added in a 50 µl volume to each well to give the desired final concentration. The peak increase in fluorescence intensity was recorded for each well. On each plate, four wells each served as negative (HBSS-HEPES buffer) and positive controls (standard agonists: BW245C (hDP); PGE2 (hEP1; hEP2/Gqs5; hEP3A/Gqi5; hEP4/Gqs5); PGF2α (hFP); carbacyclin (hIP); U-46619 (hTP), depending on receptor). The peak fluorescence change in each drug-containing well was then expressed relative to the controls.
as §2, with “averaged. In either, HTS or CoRe format each compound was tested on at least 3 separate plates using cells from different passages to give an n ≥ 3.” for “averaged.”

T1 sequence (P43116 whole entry): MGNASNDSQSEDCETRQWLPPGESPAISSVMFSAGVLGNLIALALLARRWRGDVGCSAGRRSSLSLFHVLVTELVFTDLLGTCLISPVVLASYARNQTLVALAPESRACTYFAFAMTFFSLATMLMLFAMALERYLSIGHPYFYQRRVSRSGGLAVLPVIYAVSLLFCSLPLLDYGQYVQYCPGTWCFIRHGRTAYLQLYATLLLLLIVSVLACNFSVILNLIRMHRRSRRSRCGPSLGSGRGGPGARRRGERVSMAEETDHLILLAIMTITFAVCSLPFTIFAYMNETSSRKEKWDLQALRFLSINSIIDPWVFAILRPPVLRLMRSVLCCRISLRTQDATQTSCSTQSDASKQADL
T2 sequence (Q13258 whole entry): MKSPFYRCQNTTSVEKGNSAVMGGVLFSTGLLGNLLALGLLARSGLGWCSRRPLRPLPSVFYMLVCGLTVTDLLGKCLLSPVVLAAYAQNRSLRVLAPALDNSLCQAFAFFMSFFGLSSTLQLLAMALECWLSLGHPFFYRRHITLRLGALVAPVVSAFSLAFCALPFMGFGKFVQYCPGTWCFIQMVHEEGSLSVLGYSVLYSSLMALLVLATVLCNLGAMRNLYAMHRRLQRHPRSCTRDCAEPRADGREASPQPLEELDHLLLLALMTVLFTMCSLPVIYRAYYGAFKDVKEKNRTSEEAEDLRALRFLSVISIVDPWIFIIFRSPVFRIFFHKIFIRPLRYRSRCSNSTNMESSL

Q: How did the EC50 [1] turn out when `CCCC1(C(O)c2ccc([C@H]3CCC(=O)[C@@H]3C/C=C\CCCC(=O)O)cc2)CCC1` (some centres unmarked) [Entry 6] was run?
A: Its EC50 is 2870 nM.

Q: And the EC50 [2]?
A: Its EC50 is greater than 10000 nM.
